Our source for the IC50 values is US11802120B2, “Fused cyclic urea derivatives as CRHR2 antagonist” (RaQualia Pharma Inc., priority 2018, dated 2023).

The assay has as its target T1, human CRHR2-alpha (Homo sapiens, UniProt Q13324).
T1 sequence (Q13324 1-411): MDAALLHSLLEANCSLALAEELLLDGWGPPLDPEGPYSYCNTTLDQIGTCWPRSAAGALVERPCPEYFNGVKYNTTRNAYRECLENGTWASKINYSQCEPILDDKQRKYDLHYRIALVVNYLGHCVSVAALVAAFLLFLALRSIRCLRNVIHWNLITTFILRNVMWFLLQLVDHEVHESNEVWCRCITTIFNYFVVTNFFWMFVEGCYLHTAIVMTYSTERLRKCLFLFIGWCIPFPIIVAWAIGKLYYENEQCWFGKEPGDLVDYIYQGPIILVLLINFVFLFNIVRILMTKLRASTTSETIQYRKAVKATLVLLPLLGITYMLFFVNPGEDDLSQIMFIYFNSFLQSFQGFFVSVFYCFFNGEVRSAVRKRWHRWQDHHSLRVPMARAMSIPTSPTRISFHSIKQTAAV
As to the kind of experiment: cAMP functional assay for human CRHR2 (LANCE Ultra cAMP, TR-FRET). The format is cell-based. The settings on record: CHO-K1 cells expressing human CRHR2-alpha, agonist human urocortin2 at EC80, cAMP; read-out: IC50 against CRHR2. The essentials: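 Inhibition of agonist-driven cAMP was assessed in recombinant CHO-K1 cells at 25° C, using 30 min compound pretreatment and 30 min stimulation with EC80 human urocortin2 (CRHR2) or CRF (CRHR1). IC50 came from dose-response fitting.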
Consider `Cc1ncc(Cl)cc1C(=O)N[C@H]1CC[C@H](Cn2c(=O)n(-c3ccncc3C#N)c3ccccc32)CC1` [Example 249, 5-chloro-N-((1r,4r)-4-((3-(3-cyanopyridin-4-yl)-2-oxo-2,3-dihydro-1H-benzo[d]imidazol-1-yl)methyl)cyclohexyl)-2-methylnicotinamide], for which the half-maximal inhibitory concentration (IC50) (commonly the point on the concentration scale where inhibition reaches its midpoint) was less than 300 nM. Then `CCn1ncc2cc(-n3c(=O)n(C[C@H]4CC[C@H](NC(=O)c5cc(Cl)cnc5C)CC4)c4ccccc43)cnc21` [Example 250, 5-chloro-N-((1r,4r)-4-((3-(1-ethyl-1H-pyrazolo[3,4-b]pyridin-5-yl)-2-oxo-2,3-dihydro-1H-benzo[d]imidazol-1-yl)methyl)cyclo-hexyl)-2-methylnicotinamide], with less than 300 nM.

For `COc1ccc(Cn2c(=O)n(C[C@H]3CC[C@H](NC(=O)c4cc(Cl)cnc4C)CC3)c3cccnc32)c(OC)c1` [Example 251, 5-chloro-N-((1r,4r)-4-((3-(2,4-dimethoxybenzyl)-2-oxo-2,3-dihydro-1H-imidazo[4,5-b]pyridin-1-yl)methyl)cyclo-hexyl)-2-methylnicotinamide], the half-inhibitory concentration (IC50) was less than 300 nM. As to `Cc1ncc(Cl)cc1C(=O)N[C@H]1CC[C@H](Cn2c(=O)n(-c3cnc4c(cnn4CC4CC4)c3)c3ccccc32)CC1` [Example 252, 5-chloro-N-((1r,4r)-4-((3-(1-(cyclopropylmethyl)-1H-pyrazolo[3,4-b]pyridin-5-yl)-2-oxo-2,3-dihydro-1H-benzo [d]imidazol-1-yl)methyl)cyclo-hexyl)-2-methylnicotinamide], the IC50 is less than 300 nM. Then `Cc1ncc(Cl)cc1C(=O)N[C@H]1CC[C@H](Cn2c(=O)n(-c3cnc4c(cnn4CCO)c3)c3ccccc32)CC1` [Example 253, 5-chloro-N-((1r,4r)-4-((3-(1-(2-hydroxyethyl)-1H-pyrazolo[3,4-b]pyridin-5-yl)-2-oxo-2,3-dihydro-1H-benzo[d]imidazol-1-yl)methyl)cyclohexyl)-2-methylnicotinamide], with less than 300 nM; and `CCn1cc2cc(-n3c(=O)n(C[C@H]4CC[C@H](NC(=O)c5cc(Cl)cnc5C)CC4)c4ccccc43)cnc2n1` [Example 254, 5-chloro-N-((1r,4r)-4-((3-(2-ethyl-2H-pyrazolo[3,4-b]pyridin-5-yl)-2-oxo-2,3-dihydro-1H-benzo[d]imidazol-1-yl)methyl)cyclohexyl)-2-methylnicotinamide], with less than 300 nM; and `Cc1ncc(Cl)cc1C(=O)N[C@H]1CC[C@H](Cn2c(=O)n(-c3ccc4c(c3)nnn4C)c3ccccc32)CC1` [Example 255, 5-chloro-2-methyl-N-((1r,4r)-4-((3-(1-methyl-1H-benzo[d] [1,2,3]triazol-5-yl)-2-oxo-2,3-dihydro-1H-benzo[d]imidazol-1-yl)methyl)cyclohexyl) nicotinamide], with less than 300 nM.

Consider `Cc1ncc(Cl)cc1C(=O)N[C@H]1CC[C@H](Cn2c(=O)n(-c3ccccc3Cl)c3cccnc32)CC1` [Example 256, 5-chloro-N-((1r,4r)-4-((1-(2-chlorophenyl)-2-oxo-1H-imidazo[4,5-b]pyridin-3(2H)-yl)methyl)cyclohexyl)-2-methylnicotinamide], for which the half-maximal inhibitory concentration (IC50) was less than 300 nM. With `Cc1ncc(Cl)cc1C(=O)N[C@H]1CC[C@H](Cn2c(=O)n(-c3ccccc3C(F)(F)F)c3cccnc32)CC1` [Example 257, 5-chloro-2-methyl-N-((1r,4r)-4-((2-oxo-1-(2-(trifluoro-methyl)phenyl)-1H-imidazo [4,5-b]pyridin-3(2H)-yl)methyl)cyclohexyl)nicotinamide] the figure was less than 300 nM. Then `CNC(=O)c1ccc(-n2c(=O)n(C[C@H]3CC[C@H](NC(=O)c4cc(Cl)cnc4C)CC3)c3ccc(OC)cc32)cn1` [Example 258, 5-(3-(((1r,4r)-4-(5-chloro-2-methylnicotinamido)cyclo-hexyl)methyl)-6-methoxy-2-oxo-2,3-dihydro-1H-benzo [d]imidazol-1-yl)-N-methylpicolinamide], with less than 300 nM; and `COc1ccc(C#N)c(-n2c(=O)n(C[C@H]3CC[C@H](NC(=O)c4cc(Cl)cnc4C)CC3)c3ccccc32)c1` [Example 259, 5-chloro-N-((1r,4r)-4-((3-(2-cyano-5-methoxyphenyl)-2-oxo-2,3-dihydro-1H-benzo [d]imidazol-1-yl)methyl)cyclo-hexyl)-2-methylnicotinamide], with less than 300 nM; and `Cc1n[nH]c2ccc(-n3c(=O)n(C[C@H]4CC[C@H](NC(=O)c5cc(Cl)cnc5C(F)(F)F)CC4)c4ccccc43)cc12` [Example 260, 5-chloro-N-((1r,4r)-4-((3-(3-methyl-1H-indazol-5-yl)-2-oxo-2,3-dihydro-1H-benzo[d]imidazol-1-yl)methyl)cyclohexyl)-2-(trifluoromethyl)nicotinamide], with less than 300 nM. With `Cc1ncc(Cl)cc1C(=O)N[C@H]1CC[C@H](Cn2c(=O)n(-c3ccc4c(CO)noc4c3)c3ccccc32)CC1` [Example 261, 5-chloro-N-((1r,4r)-4-((3-(3-(hydroxymethyl)benzo[d]isoxazol-6-yl)-2-oxo-2,3-dihydro-1H-benzo[d]imidazol-1-yl)methyl)cyclohexyl)-2-methylnicotinamide], the half-maximal inhibitory concentration (IC50) was less than 300 nM. Then `Cc1ncc(Cl)cc1C(=O)N[C@H]1CC[C@H](Cn2c(=O)n(-c3ccncc3Cl)c3ccccc32)CC1` [Example 262, 5-chloro-N-((1r,4r)-4-((3-(3-chloropyridin-4-yl)-2-oxo-2,3-dihydro-1H-benzo[d]imidazol-1-yl)methyl)cyclo-hexyl)-2-methylnicotinamide], with less than 300 nM. Then `Cc1ncc(Cl)cc1C(=O)N[C@H]1CC[C@H](Cn2c(=O)n(-c3ccc4oc(N)nc4c3)c3ccccc32)CC1` [Example 263, N-((1r,4r)-4-((3-(2-aminobenzo[d]oxazol-5-yl)-2-oxo-2,3-dihydro-1H-benzo[d]imidazol-1-yl)methyl)cyclohexyl)-5-chloro-2-methylnicotinamide], with less than 300 nM; and `Cc1ncc(Cl)cc1C(=O)N[C@H]1CC[C@H](Cn2c(=O)n(-c3ccc4ocnc4c3)c3ccccc32)CC1` [Example 264, N-((1r,4r)-4-((3-(benzo[d]oxazol-5-yl)-2-oxo-2,3-dihydro-1H-benzo[d]imidazol-1-yl)methyl)cyclo-hexyl)-5-chloro-2-methyl-nicotinamide], with less than 300 nM; and `Cc1ccc(-n2c(=O)n(C[C@H]3CC[C@H](NC(=O)c4cc(Cl)cnc4C(F)(F)F)CC3)c3ccccc32)cn1` [Example 265, 5-chloro-N-((1r,4r)-4-((3-(6-methylpyridin-3-yl)-2-oxo-2,3-dihydro-1H-benzo [d]imidazol-1-yl)methyl)cyclohexyl)-2-(trifluoro-methyl)nicotinamide], with less than 300 nM. Then `Cc1ccc(-n2c(=O)n(C[C@H]3CC[C@H](NC(=O)c4cc(Cl)ccc4C4CC4)CC3)c3ccccc32)cn1` [Example 266, 5-chloro-2-cyclopropyl-N-((1r,4r)-4-((3-(6-methyl-pyridin-3-yl)-2-oxo-2,3-dihydro-1H-benzo[d]imidazol-1-yl)methyl)cyclo-hexyl)benzamide], with less than 300 nM; and `Cc1ccc(-n2c(=O)n(C[C@H]3CC[C@H](NC(=O)c4cc(Cl)ccc4C)CC3)c3ccccc32)cn1` [Example 267, 5-chloro-2-methyl-N-((1r,4r)-4-((3-(6-methyl-pyridin-3-yl)-2-oxo-2,3-dihydro-1H-benzo[d]imidazol-1-yl)methyl)cyclo-hexyl)benzamide], with less than 300 nM. For `Cc1ccc(C(F)(F)F)c(C(=O)N[C@H]2CC[C@H](Cn3c(=O)n(-c4ccc(C)nc4)c4ccccc43)CC2)c1` [Example 268, 5-methyl-N-((1r,4r)-4-((3-(6-methylpyridin-3-yl)-2-oxo-2,3-dihydro-1H-benzo[d]imidazol-1-yl)methyl)cyclohexyl)-2-(trifluoromethyl)benzamide], the IC50 is less than 300 nM.

With `Cc1ccc(-n2c(=O)n(C[C@H]3CC[C@H](NC(=O)c4cc(Cl)ccc4Cl)CC3)c3ccccc32)cn1` [Example 269, 2,5-dichloro-N-((1r,4r)-4-((3-(6-methylpyridin-3-yl)-2-oxo-2,3-dihydro-1H-benzo[d]imidazol-1-yl)methyl)cyclohexyl)benzamide], the 50% inhibitory concentration (IC50) is less than 300 nM. With `Cc1ccc(-n2c(=O)n(C[C@H]3CC[C@H](NC(=O)c4cc(Cl)ccc4C(F)(F)F)CC3)c3ccccc32)cn1` [Example 270, 5-chloro-N-((1r,4r)-4-((3-(6-methylpyridin-3-yl)-2-oxo-2,3-dihydro-1H-benzo[d]imidazol-1-yl)methyl)cyclo-hexyl)-2-(trifluoromethyl) benzamide] the figure was less than 300 nM.

For `Cc1ncc(Cl)cc1C(=O)N[C@H]1CC[C@H](Cn2c(=O)n(-c3cnc4[nH]nc(C)c4c3)c3ccccc32)CC1` [Example 271, 5-chloro-2-methyl-N-((1r,4r)-4-((3-(3-methyl-1H-pyrazolo[3,4-b]pyridin-5-yl)-2-oxo-2,3-dihydro-1H-benzo[d]imidazol-1-yl)methyl)cyclohexyl)nicotinamide], the IC50 was less than 300 nM. Then `Cc1ncc(Cl)cc1C(=O)N[C@H]1CC[C@H](Cn2c(=O)n(-c3ccn4ccnc4c3)c3ccccc32)CC1` [Example 272, 5-chloro-N-((1r,4r)-4-((3-(imidazo[1,2-a]pyridin-7-yl)-2-oxo-2,3-dihydro-1H-benzo [d]imidazol-1-yl)methyl)cyclohexyl)-2-methyl-nicotinamide], with less than 300 nM.
